Calls of active or inactive are those of the source. The calls are words filed in the database; no cut-off is given here.
Assays:
[1] = Cytotoxicity against MDCK cells assessed as reduction in cell viability by ATP bioluminescence assay; type: cell-based, Canis lupus familiaris; conditions: dog
[2] = Stability in simulated intestinal fluid assessed as parent compound remaining at 1 uM measured after 4 hrs at pH 1.2 by LC-MS/MS analysis; type: physicochemical; conditions: read-out: Stability
[3] = tested on: Influenza A virus; assay: Antiviral activity against Influenza A/California/04/2009 (H1N1)pdm09 infected in specific pathogen-free BALB/c mouse assessed as reduction in virus titre in lung at 20 mg/kg, po administered via gavage immediately after infection and at 12 hrs post-infection measured 24 hrs post-infection; type: functional, organism-based
[4] = tested on: Influenza A virus; assay: Antiviral activity against Influenza A/California/04/2009 (H1N1)pdm09 infected in specific pathogen-free BALB/c mouse assessed as protection against virus-induced mouse death at 20 mg/kg, po administered via gavage immediately after infection and at 12 hrs post-infection measured on 16 days post-infection relative to control; type: functional
[5] = Stability in rat plasma assessed as parent compound remaining at 1 uM measured after 4 hrs by LC-MS/MS analysis; type: ADME, cell-free; conditions: read-out: Stability
[6] = tested on: Influenza A virus H3N2; assay: Antiviral activity against Influenza A virus (A/Fukui/20/2004 (H3N2)) infected in MDCK cells assessed as protection against virus-induced cell death measured 72 to 96 hrs post-infection by CellTiter-Glo assay; type: functional, organism-based; conditions: A/Fukui/20/2004, MDCK
[7] = Oral bioavailability in CD1 mouse at 10 mg/kg administered as single dose by LC-MS/MS analysis; type: ADME, organism-based; conditions: in vivo
[8] = target: dopamine transporter (sodium-dependent dopamine transporter) (Homo sapiens, UniProt Q01959); assay: Binding affinity to human dopamine transporter at 10 uM relative to control; type: ADME; conditions: read-out: Activity
Sequence of dopamine transporter (sodium-dependent dopamine transporter) (Q01959 whole entry): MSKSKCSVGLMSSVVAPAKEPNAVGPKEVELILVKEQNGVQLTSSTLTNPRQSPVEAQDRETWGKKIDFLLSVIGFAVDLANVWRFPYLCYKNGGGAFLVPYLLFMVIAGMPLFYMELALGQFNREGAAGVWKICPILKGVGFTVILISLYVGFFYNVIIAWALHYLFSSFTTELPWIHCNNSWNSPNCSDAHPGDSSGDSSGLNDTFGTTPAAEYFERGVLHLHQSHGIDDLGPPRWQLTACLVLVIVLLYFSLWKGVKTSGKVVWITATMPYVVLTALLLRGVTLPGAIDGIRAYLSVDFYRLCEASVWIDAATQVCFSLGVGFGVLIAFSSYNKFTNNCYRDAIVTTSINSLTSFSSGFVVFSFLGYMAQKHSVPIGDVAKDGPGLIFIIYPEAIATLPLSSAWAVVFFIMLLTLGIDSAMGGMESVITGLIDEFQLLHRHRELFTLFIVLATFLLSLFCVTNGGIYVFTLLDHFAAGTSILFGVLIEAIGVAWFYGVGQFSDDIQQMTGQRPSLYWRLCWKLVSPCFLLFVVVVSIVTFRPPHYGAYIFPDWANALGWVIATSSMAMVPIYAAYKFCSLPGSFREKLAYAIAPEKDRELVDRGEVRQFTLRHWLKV

[9] = Cytotoxicity against human HepG2 cells assessed as reduction in cell viability measured after 24 hrs in presence of glucose by MTT assay; type: cell-based
[10] = tested on: Influenza B virus; assay: Antiviral activity against Victoria lineage of Influenza B virus (B/Brisbane/60/2008) infected in MDCK cells assessed as protection against virus-induced cell death measured 72 to 96 hrs post-infection by CellTiter-Glo assay; type: functional, organism-based; conditions: B/Brisbane/60/2008, MDCK
[11] = Cytotoxicity against MDCK cells assessed as reduction in cell viability by CellTiter-Glo assay; type: cell-based, Canis lupus familiaris; conditions: dog
[12] = Ratio of AUClast in CD1 mouse lung to plasma at 10 mg/kg, po administered as single dose by LC-MS/MS analysis; type: ADME, organism-based; conditions: lung and plasma, read-out: Ratio AUC
[13] = AUClast in CD1 mouse lung at 10 mg/kg, po administered as single dose by LC-MS/MS analysis; type: ADME, organism-based; conditions: in vivo
[14] = Stability in simulated gastric fluid assessed as parent compound remaining at 1 uM measured after 4 hrs at pH 1.2 by LC-MS/MS analysis; type: physicochemical; conditions: read-out: Stability
[15] = Cmax in CD1 mouse plasma at 10 mg/kg, po administered as single dose by LC-MS/MS analysis; type: ADME, organism-based; set-up: dose 10 mg/kg, route oral
[16] = Protein binding in rat plasma at 1 uM measured after 4 hrs by LC-MS/MS analysis; type: ADME, cell-free; conditions: read-out: PPB (converted)
[17] = Stability in rat liver S9 fraction assessed as parent compound remaining at 1 uM measured after 4 hrs by LC-MS/MS analysis; type: ADME, subcellular; conditions: read-out: Stability
[18] = Ratio of Cmax in CD1 mouse lung to plasma at 10 mg/kg, po administered as single dose by LC-MS/MS analysis; type: ADME, organism-based; conditions: lung and plasma
[19] = tested on: Influenza A virus; assay: Antiviral activity against Influenza A/California/04/2009 (H1N1)pdm09 infected in MDCK cells assessed as protection against virus-induced cell death by CellTiter-Glo assay; type: functional, organism-based; conditions: A/California/04/2009(H1N1) pdm09, MDCK
[20] = Stability in mouse liver S9 fraction assessed as parent compound remaining at 1 uM measured after 4 hrs by LC-MS/MS analysis; type: ADME, subcellular; conditions: read-out: Stability
[21] = Selectivity ratio of CC50 for human HepG2 cells assessed as reduction in cell viability measured after 24 hrs in presence of glucose to CC50 for human HepG2 cells assessed as reduction in cell viability measured after 24 hrs in presence of galactose; type: cell-based
[22] = AUClast in CD1 mouse plasma at 10 mg/kg, po administered as single dose by LC-MS/MS analysis; type: ADME, organism-based; set-up: dose 10 mg/kg, route oral, time 0 - last
[23] = Protein binding in mouse plasma at 1 uM measured after 4 hrs by LC-MS/MS analysis; type: ADME, cell-free; conditions: read-out: PPB (converted)
[24] = Stability in mouse plasma assessed as parent compound remaining at 1 uM measured after 4 hrs by LC-MS/MS analysis; type: ADME, cell-free; conditions: read-out: Stability
[25] = Selectivity index, ratio of CC50 for MDCK cells to EC50 for Influenza A/California/04/2009 (H1N1)pdm09 virus infected in MDCK cells; type: toxicity, cell-based; conditions: dog, read-out: Ratio CC50/EC50
[26] = Stability in human liver S9 fraction assessed as parent compound remaining at 1 uM measured after 4 hrs by LC-MS/MS analysis; type: ADME, subcellular; conditions: read-out: Stability
[27] = Protein binding in human plasma at 1 uM measured after 4 hrs by LC-MS/MS analysis; type: ADME, cell-free; conditions: read-out: PPB (converted)
[28] = Stability in human plasma assessed as parent compound remaining at 1 uM measured after 4 hrs by LC-MS/MS analysis; type: ADME, cell-free; conditions: read-out: Stability
[29] = tested on: Influenza B virus; assay: Antiviral activity against Yamagata lineage of Influenza B virus (B/Florida/4/2006) infected in MDCK cells assessed as protection against virus-induced cell death measured 72 to 96 hrs post-infection by CellTiter-Glo assay; type: functional, organism-based; conditions: B/Florida/4/2006, MDCK
[30] = Cytotoxicity against human HepG2 cells assessed as reduction in cell viability measured after 24 hrs in presence of galactose by MTT assay; type: cell-based
[31] = tested on: Influenza A virus; assay: Antiviral activity against Influenza A virus (A/Denmark/524/2009(H1N1)) pdm09 infected in MDCK cells assessed as protection against virus-induced cell death measured 72 to 96 hrs post-infection by CellTiter-Glo assay; type: functional, organism-based; conditions: A/Denmark/524/2009(H1N1) pdm09, MDCK
[32] = Toxicity in Influenza A/California/04/2009 (H1N1)pdm09 infected specific pathogen-free BALB/c mouse assessed as effect on body weight at 20 to 50 mg/kg, po administered via gavage immediately after infection and at 12 hrs post-infection measured after 10 days post-infection; type: organism-based; conditions: in vivo, 240 h
[33] = Cmax in CD1 mouse lung at 10 mg/kg, po administered as single dose by LC-MS/MS analysis; type: ADME, organism-based; set-up: dose 10 mg/kg, route oral
[34] = tested on: HEK-293T; assay: Inhibition of CEN polymerase activity in Influenza A/California/04/2009 (H1N1)pdm09 NP/PA/PB1/PB2 complex transfected in HEK293T cells co-expressing beta-galactosidase at 100 nM preincubated for 3 hrs followed by viral gene transfection and measured after 24 hrs by ONPG substrate based luciferase reporter gene mini-replicon assay relative to control; type: cell-based; conditions: Influenza A virus (A/California/04/2009(H1N1))
[35] = AUClast in CD1 mouse plasma at 2 mg/kg, iv administered as single dose by LC-MS/MS analysis; type: ADME, organism-based; set-up: dose 2 mg/kg, route intravenous, time 0 - last
[36] = Toxicity in Influenza A/California/04/2009 (H1N1)pdm09 infected specific pathogen-free BALB/c mouse assessed as reduction in body weight at 20 to 50 mg/kg, po administered via gavage immediately after infection and at 12 hrs post-infection measured on 10 days post-infection; type: organism-based; conditions: in vivo, 240 h
[37] = Cytotoxicity against human PBMC cells assessed as reduction in cell viability by ATP bioluminescence assay; type: cell-based
[38] = tested on: Influenza A virus; assay: Antiviral activity against Influenza A/California/04/2009 (H1N1)pdm09 infected in specific pathogen-free BALB/c mouse assessed as protection against virus-induced mouse death at 50 mg/kg, po administered via gavage immediately after infection and at 12 hrs post-infection measured on 16 days post-infection relative to control; type: functional
[39] = Cytotoxicity against human MRC5 cells assessed as reduction in cell viability by ATP bioluminescence assay; type: cell-based
[40] = tested on: HEK-293T; assay: Inhibition of CEN polymerase activity in Influenza A/California/04/2009 (H1N1)pdm09 NP/PA/PB1/PB2 complex transfected in HEK293T cells co-expressing beta-galactosidase at 25 nM preincubated for 3 hrs followed by viral gene transfection and measured after 24 hrs by ONPG substrate based luciferase reporter gene mini-replicon assay relative to control; type: cell-based; conditions: Influenza A virus (A/California/04/2009(H1N1))

## O=C1c2c(O)c(=O)ccn2N(C(c2ccccc2)c2ccccc2)[C@@H]2COCCN12
[1]
  CC50: 5.8 µM
[2]
  remaining at 4 h, 1 µM: 89.3%
[3]
  Activity: Active
[4]
  Activity: 80%
[5]
  remaining at 4 h, 1 µM: 71.4%
[6]
  EC50: 0.0036 to 0.0125 µM
[7]
  bioavailability: 38.2%
[8]
  activity at 10 µM: 71.7%
[9]
  CC50 at 24 h: 20 µM
[10]
  EC50: 5.1 to 28.3 µM
[11]
  CC50: 12.1 µM
[12]
  Kp: 3.1
[13]
  AUClast: 7477 ng·h/g
[14]
  remaining at 4 h, 1 µM: 96%
[15]
  Cmax: 1660 ng/mL
[16]
  fraction unbound at 4 h, 1 µM: 0.193
[17]
  remaining at 4 h, 1 µM: 79%
[18]
  Kp: 2.2
[19]
  EC50: 0.0185 µM
[20]
  remaining at 4 h, 1 µM: 97.1%
[21]
  selectivity ratio at 24 h: 1.1
[22]
  AUC(0-t): 2420 ng·h/mL
[23]
  fraction unbound at 4 h, 1 µM: 0.138
[24]
  remaining at 4 h, 1 µM: 70.1%
[25]
  selectivity ratio: 654
[26]
  remaining at 4 h, 1 µM: 82.8%
[27]
  fraction unbound at 4 h, 1 µM: 0.033
[28]
  remaining at 4 h, 1 µM: 63.2%
[29]
  EC50: 5.1 to 28.3 µM
[30]
  CC50 at 24 h: 18 µM
[31]
  EC50: 0.0036 to 0.0125 µM
[32]
  Activity: Non-Toxic
[33]
  Cmax: 3720 ng/g
[34]
  inhibition: 70%
[35]
  AUC(0-t): 844 ng·h/mL
[36]
  Activity: Toxic
[37]
  CC50: 21 µM
[38]
  Activity: 60%
[39]
  CC50: > 100 µM
[40]
  inhibition: 17.8%

From ChEMBL document CHEMBL4622979, “Non-rigid Diarylmethyl Analogs of Baloxavir as Cap-Dependent Endonuclease Inhibitors of Influenza Viruses” (J Med Chem, 2020)
